Patent publication US9271962B2 (NORTHEASTERN UNIVERSITY, priority 2008, dated 2016)

Key:
[1] = biological target: T1, ΔTM rFAAH (Rattus norvegicus, UniProt P97612); experiment: Fluorescent enzyme assay, FAAH (AAMCA hydrolysis); type: biochemical; details: for inhibition at 0.01 µM: 10 nM inhibitor; for inhibition at 0.01 µM / inhibition at 1 µM: AAMCA substrate, screening assay; for inhibition at 1 µM: 1000 nM inhibitor
T1 construct: 15 ug of ΔTM rFAAH (cell lysate obtained by recombinant procedure); made in house
T1 sequence (P97612 30-579 limits assumed): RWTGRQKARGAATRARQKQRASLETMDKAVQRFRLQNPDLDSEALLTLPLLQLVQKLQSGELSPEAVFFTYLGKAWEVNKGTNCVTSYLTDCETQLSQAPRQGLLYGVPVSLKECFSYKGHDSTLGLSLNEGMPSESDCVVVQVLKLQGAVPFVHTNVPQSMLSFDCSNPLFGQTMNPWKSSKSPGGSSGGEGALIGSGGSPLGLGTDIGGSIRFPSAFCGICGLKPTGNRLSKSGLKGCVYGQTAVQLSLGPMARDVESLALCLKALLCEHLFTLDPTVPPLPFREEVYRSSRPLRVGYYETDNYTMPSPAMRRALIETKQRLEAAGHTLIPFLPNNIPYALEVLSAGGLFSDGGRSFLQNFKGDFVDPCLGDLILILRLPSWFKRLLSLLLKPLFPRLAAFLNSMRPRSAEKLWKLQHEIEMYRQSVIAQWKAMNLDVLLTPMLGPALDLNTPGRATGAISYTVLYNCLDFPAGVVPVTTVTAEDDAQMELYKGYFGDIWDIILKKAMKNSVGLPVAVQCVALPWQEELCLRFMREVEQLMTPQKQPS
Experimental: (§1) Some analogs were tested for their FAAH/MGL inhibitory activity, which is expressed as % of inhibition (Tables 2, 3, and 4 below). The percentage of inhibition results from three-point assay (three concentrations of inhibitor are used) and it is less accurate (preliminary screening) than the IC50/Ki values that are determined from eight-point assay (eight different concentrations of inhibitor were used). The percentage of inhibition describes the percentage by which the inhibitor reduces the velocity/rate of AAMCA (arachidonoyl-7-amino-4-methylcoumarin amide) or AHMMCE (arachidonoyl-7-hydroxy-6-methoxy-4-methylcoumarin ester) hydrolysis by FAAH or MGL respectively. The IC50 is the concentration of the inhibitor, which results in 50% inhibition of the velocity/rate of AAMCA (arachidonoyl 7-amino-4-methylcoumarin amide) hydrolysis by FAAH or AHMMCE (Arachidonoyl, 7-hydroxy-6-methoxy-4-methylcoumarin ester) hydrolysis by MGL. The Ki value is the affinity constant and describes the ability of the compounds to inhibit the function of FAAH or MGL. The lower the IC50/Ki values, the higher the affinity of the inhibitor for the enzyme and the higher its inhibitory activity. A detailed description of the methods used to test inhibitory activity of compounds is given below.
The enzyme (FAAH and MGL) assays were performed in 96 well plates (Coster #3650) in a total volume of 200 uL. Fluorogenic substrate AAMCA (arachidonoyl 7-amino-4-methylcoumarin amide) for FAAH and AHMMCE (arachidonoyl 7-hydroxy-6-methoxy-4-methylcoumarin ester) for MGL were used using BioTek Synergy HT Microplate Reader. Compounds and substrates were dissolved in DMSO provide a 10 mM stock solution and kept as a stock solution at −20° C. until used for assay. Stock solutions were thawed and reconstituted in 50:50 DMSO/assay buffer to a final DMSO concentration per well below 8%. This ensures that the compounds and substrate are in solution during assay. […] Appropriate substrate was added to adjust the final concentration in each well to 20 uM for FAAH (2× Km) and 10 uM for MGL (1×KM). Fluorescence readings were performed at λex=360/λem=460 for 4 h using Kinetic assay protocol at every 20 min (the fluorescent product coumarin produced is quantitated by this procedure). The readings at 3 h for FAAH and 2 h for MGL (linear maximum hydrolysis kinetics of enzyme on substrate) were used to calculate percent inhibition based on controls. Compounds which had more than 50 percent inhibition at 10 uM were selected for dose response study to determine IC50 values. The dose response at 8 concentration points was performed as with the screening assay except that compounds were serially diluted to 8 concentration points which were chosen based on IC50 value, which were calculated from the screening assay results. Assays are run twice in triplicates and Graphpad Prism software is used to plot inhibition data to obtain IC50 values.

[2] = biological target: T2, hMGL (Homo sapiens, UniProt Q99685); experiment: Fluorescent enzyme assay, MGL (AHMMCE hydrolysis); type: biochemical; details: for inhibition at 0.01 µM: 10 nM inhibitor, read-out: % Inhibition of Enzyme by inhibitor, MGL, 10 nM; for inhibition at 0.01 µM / inhibition at 1 µM: AHMMCE substrate, screening assay; for inhibition at 1 µM: 1000 nM inhibitor; for inhibition at 100 µM: 100 uM inhibitor, printed in the 1000 nM column
T2 construct: A full-length cDNA clone of the human MGL transcript variant 1; made in house; host or cells: E. coli BL21 (DE3)
T2 sequence (Q99685 2-303 limits assumed): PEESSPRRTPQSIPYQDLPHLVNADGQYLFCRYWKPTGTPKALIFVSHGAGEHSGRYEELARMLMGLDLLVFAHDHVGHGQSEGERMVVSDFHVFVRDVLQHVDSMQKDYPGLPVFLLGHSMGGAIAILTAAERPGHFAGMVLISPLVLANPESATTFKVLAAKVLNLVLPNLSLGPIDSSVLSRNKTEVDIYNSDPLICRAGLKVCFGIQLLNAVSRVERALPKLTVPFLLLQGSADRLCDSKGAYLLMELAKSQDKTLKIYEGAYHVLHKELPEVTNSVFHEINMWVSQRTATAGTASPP
Experimental: as §1
A full-length cDNA clone of the human MGL transcript variant 1 (gi: 51242951) was obtained from OriGene Technologies (Rockville, Md.). The coding part of the MGL sequence (except the translation initiation codon ATG) was amplified by a polymerase chain reaction (PCR) using forward […] and reverse […] primers containing PmlI and SacI restriction enzyme recognition sites, respectively. iProof high-fidelity DNA polymerase (Bio-Rad, Hercules, Calif.) was used in the PCR amplification with 33 cycles, each consisting of denaturation at 94° C. for 10 s, annealing at 55° C. for 33 s, and extension at 72° C. for 1 min. The PCR product and pET45b vector were digested with PmlI and SacI restriction enzymes, and the vector was dephosphorylated with CIP followed by in-gel purification using the MinElute Gel Extraction Kit (Qiagen Corp., Valencia, Calif.). The fragment was inserted into the vector directly downstream after the 6 histidine and valine codons, generating the construct pET45His6hMGL for expression of hMGL containing an N-terminal His6-tag. GC10 E. coli cells were used for DNA transformation and plasmid propagation. Mini- and midi-scale plasmid DNA preparations were performed using a GenElute Plasmid Miniprep Kit (Sigma) and PureYield Plasmid Midiprep System (Promega, Madison, Wis.), respectively. In-frame vector-fragment junctions and the coding sequence of the recombinant gene were confirmed by sequencing. The pET45His6hMGL construct was transformed into BL21 (DE3) and Origami (DE3) E. coli expression strains (Novagen, Madison, Wis.).
A single E. coli BL21 (DE3) colony containing the pET45His6hMGL plasmid was inoculated into 12 mL of Luria broth-ampicillin medium and grown overnight with shaking (250 rpm) at 37° C. The next morning, 10 mL of this culture was inoculated into 1 L of fresh Luria broth-ampicillin and allowed to grow until culture turbidity reached an (OD)600 of 0.6-0.8, at which time expression from the T7 promoter was induced by adding isopropyl-β-D-thio-galactopyranoside (1 mM). After 5 h induction, the cells were harvested by centrifugation at 5,000 g for 10 min at 4° C., washed with PBS, and held at −80° C. Five grams (wet-weight) of cells were resuspended in 50 mL lysis buffer (100 mM NaCl; 50 mM Tris, pH 8.0) supplemented with Triton X-100 (0.5%), lysozyme (0.2 mg/mL), and DNase I (25 μg/ml) and disrupted on ice by three, one-min sonication cycles, each consisting of 1-sec sonication bursts at 50 W power separated from each other by a 2-sec interval (Vibra-Cell 500 W, Sonics, Newtown, Conn.). The cell lysate was centrifuged at 10,000 g for 30 min at 4° C. […]

Structure (SMILES) | inhibition at 0.01 µM [1] [%] | inhibition at 0.01 µM [2] [%] | inhibition at 1 µM [1] [%] | inhibition at 1 µM [2] [%] | other results
CSc1ccc(Cc2nnnn2C(=O)N(C)C)cc1 [Compound 23b] | 89 | 60 | – | – | –
CN(C)C(=O)n1nnc(Cc2ccc(-c3ccncc3)cc2)n1 [Compound 44, N,N-dimethyl-5-(4-(pyridin-4-yl)benzyl)-2H-tetrazole-2-carboxamide] | – | – | 12 | 10 | –
CN(C)C(=O)n1nnc2ccccc21 [Compound 28, N,N-dimethyl-1H-benzo[d][1,2,3]-triazole-1-carboxamide] | 67 | 30 | – | – | –
CSc1ccc(Cc2nnn(C(=O)N(C)C)n2)cc1 [Compound 23a] | 91 | 98 | – | – | –
CN(C)C(=O)n1nnnc1Cc1ccc(I)cc1 [Compound 18b] | 86 | 64 | – | – | –
CN(C)C(=O)n1cnc2ncncc21 [Compound 60, N,N-dimethyl-7H-purine-7-carboxamide] | – | – | 96 | 86 | –
CN(C)C(=O)n1cnc(-c2ccccc2)n1 [Compound 52, N,N-dimethyl-3-phenyl-1H-1,2,4-triazole-1-carboxamide] | – | 2 | – | 87 | –
CN(C)C(=O)n1cnc2nc(OCc3ccccc3)ncc21 [Compound 59, 2-(benzyloxy)-N,N-dimethyl-7H-purine-7-carboxamide] | – | – | – | – | inhibition at 100 µM ([1]; 100 uM inhibitor, printed in the 1000 nM column): 10%; inhibition at 100 µM [2]: 86%
CN(C)C(=O)n1nnnc1Cc1cccnc1 [Compound 5, N,N-dimethyl-5-(pyridin-3-yl-methyl)-1H-tetrazole-1-carboxamide] | 84 | 81 | – | – | –
CN(C)C(=O)n1nnnc1Cc1ccc(Cl)cc1Cl [Compound 17b] | 86 | 97 | – | – | –
CN(C)C(=O)n1nnc(Cc2ccc3ccccc3c2)n1 [Compound 51] | – | – | 30 | – | inhibition at 100 µM [2]: 26%
CN(C)C(=O)n1nnnc1CC(=O)c1ccccc1 [Compound 4, N,N-dimethyl-5-(2-oxo-2-phenylethyl)-1H-tetrazole-1-carboxamide] | 100 | 90 | – | – | –
CN(CCCCN=[N+]=[N-])C(=O)n1cnc(-c2ccccc2)c1 [Compound 48, N-(4-azidobutyl)-N-methyl-4-phenyl-1H-imidazole-1-carboxamide] | 8 | – | 90 | 14 | –
CC(=O)Nc1ccc(Cc2nnn(C(=O)N(C)C)n2)cc1 [Compound 25a] | – | – | 100 | 99 | –
CN(C)C(=O)n1nnc(Cc2ccncc2)n1 [Compound 39, N,N-dimethyl-5-(pyridin-4-ylmethyl)-2H-tetrazole-2-carboxamide] | – | – | 21 | 40 | –
CN(C)C(=O)n1nnc(Cc2ccc([N+](=O)[O-])cc2)n1 [Compound 22a, N,N-dimethyl-5-(4-nitrobenzyl)-2H-tetrazole-2-carboxamide] | 92 | 97 | – | – | –
CN(C)C(=O)N1CC(Cc2ccccc2)OC1=O (stereo not shown) [Compound 32, 5-benzyl-N,N-dimethyl-2-oxooxazolidine-3-carboxamide] | – | – | 5 | 3 | –
CN(C)C(=O)n1nnc(Cc2ccccc2)n1 [Compound 34, 5-benzyl-N,N-dimethyl-2H-tetrazole-2-carboxamide] | 91 | 100 | – | – | –
O=C(N(c1ccccc1)c1ccccc1)n1nnnc1Cc1ccc(Cl)cc1Cl [Compound 8b] | – | – | 9 | 21 | –
O=C(N1CCN(Cc2ccc3ccccc3n2)CC1)n1cnc(-c2ccccc2)c1 [Compound 64, (4-phenyl-1H-imidazol-1-yl)(4-(quinolin-2-ylmethyl)piperazin-1-yl)methanone] | – | – | – | – | inhibition at 100 µM [2]: 19%
O=C(N1CCN(Cc2ccc3ccccc3n2)CC1)n1nnc(Cc2ccc(Cl)cc2Cl)n1 [Compound 65, (5-(2,4-dichlorobenzyl)-2H-tetrazol-2-yl)(4-(quinolin-2-ylmethyl)piperazin-1-yl)methanone] | – | – | – | – | inhibition at 100 µM [2]: 68%
CN(C)C(=O)n1nnc(C(F)(F)c2ccccc2)n1 [Compound 46, 5-(difluoro(phenyl)methyl)-N,N-dimethyl-2H-tetrazole-2-carboxamide] | – | 2 | – | 92 | –
CN(C)C(=O)n1nnc(Cc2ccccc2Cl)n1 [Compound 45, 5-(2-chlorobenzyl)-N,N-dimethyl-2H-tetrazole-2-carboxamide] | – | 93 | – | – | –
CN(C)S(=O)(=O)n1nnc(Cc2ccc(-c3ccccc3)cc2)n1 [Compound 38a] | – | – | 25 | – | –
CN(C)C(=O)n1nnc(Cc2ccc(-c3cccnc3)cc2)n1 [Compound 43, N,N-dimethyl-5-(4-(pyridin-3-yl)benzyl)-2H-tetrazole-2-carboxamide] | – | – | 34 | – | –
